The subject of data set [1] is mouse hepatocytes (FL83B cells). In words: Glucose uptake assay (Glucose Uptake-Glo). Type of data set: cell-based. The settings on record: two-log difference in PC (34:2) concentration. How it is done:
Glucose uptake assay. Glucose uptake was performed using the Glucose Uptake-Glo™ Assay from Promega (J1341) in accordance with the manufacturer's instructions. Briefly, 2×10^4 cells were seeded into 96 well tissue culture plate in complete medium. […] Cells were treated with 1 nM of insulin for an additional 1 hour. Medium was removed and cells were washed twice with PBS. 50 μof 2-deoxyglucose (DG, 1 mM per well) was added and incubated for 1 hour at room temperature (RT). 25 μl of stop buffer added and mixed briefly, then 25 μl of neutralization buffer added and shaken briefly. 100 μl of 2DG6P detection reagent was added and the mixture shaken for 3 hours at RT. Luminescence was recorded with 135 gain efficiency using a SYNERGY H1 (BioTek Instruments, Inc., Winooski, Vt.) luminometer. […] These supernatants (0.5 ml) were further used in hepatocyte (cultured with 0.5×10^6 fecal exosomes) cultures to determine the which cytokines were induced by fecal exosome treatment of macrophages.

In another data set the test system is AhR in FL83B cells. In words: AhR and pAhR expression in hepatocytes (western blot). Format: cell-based, mouse. How it is done:
Cells. Murine hepatocytes (FL83B) and human hepatocytes (HepG2) (obtained from the American Type Culture Collection, ATCC®, Manassas, Va.) were grown in tissue culture plates with F12K medium (Thermo Fisher Scientific,) supplemented with 10% heat-inactivated fetal bovine serum (FBS), 100 U ml-1 penicillin, and […] streptomycin at 37° C. in a 5% CO2 atmosphere. Human monocytes (U937) were grown in RPMI 1640 medium (Thermo Fisher Scientific, Waltham, Mass.) supplemented with 10% FBS. For fecal exosomes (with or without PKH26 labeling) treatment for FL83B and HepG2 cells, 2×10^4 cells were seeded into six well plates. After achieving 50-60% confluence, fecal exosomes (numbers indicated in Figures) were added and incubated for 16 hours at 37° C. in a 5% CO2 atmosphere. Cells were washed with PBS and processed for imaging, RNA isolation, and protein extraction. […]
Western blot analysis. […] Protein concentrations were determined using the BioRad Protein Assay Reagent. […] Individual protein was detected with specific antibodies and visualized by infrared fluorescent secondary antibodies (Table 2). The protein bands were visualized and analyzed on an Odyssey CLx Imager (LiCor Inc, Lincoln, Nebr.).
Background: In western blotting, separated proteins are transferred to a membrane and probed.

As to phosphatidylcholine [PC (34:2)], the “glucose uptake, dose dependence” value in data set [1] was “inhibited in a PC-dose dependent manner”. In the data set with AhR in FL83B cells, the “AhR expression in hepatocytes” value is “confirmed in a PC-dose dependent manner”.

Values taken from patent US20220288130A1, “COMPOSITIONS AND METHODS FOR DIAGNOSIS AND TREATMENT OF METABOLIC DISEASES AND DISORDERS” (University of Louisville Research Foundation, Inc., priority 2019, published 2022).
